Assay results from ChEMBL document CHEMBL3751844, “Novel juglone and plumbagin 5-O derivatives and their in vitro growth inhibitory activity against apoptosis-resistant cancer cells” (Bioorg Med Chem Lett, 2016).
pIC50: −log10 of the molar value. Activity calls are given as the source filed them. No cut-off for these calls is given here.

Tested on: not listed separately
Experiment: Growth inhibition of human Hs683 cells by MTT assay
Assay type: functional, cell-based
Conditions: Hs 683

Question: With `CCCCCCCC/C=C\CCCCCCCC(=O)Oc1cccc2c1C(=O)C=C(C)C2=O` as the molecule, how does the pIC50 read?
Answer: 4.46

Question: With `CCOc1cccc2c1C(=O)C=C(C)C2=O` as the molecule, how does the pIC50 read?
Answer: 5.70

Question: With `CCCCCCCCCCCCCC(=O)Oc1cccc2c1C(=O)C=CC2=O` as the molecule, how does the pIC50 read?
Answer: 4.44

Question: With `CC(C)=CCOc1cccc2c1C(=O)C=C(C)C2=O` as the molecule, how does the pIC50 read?
Answer: 5.52

Question: With `CC(=O)Oc1cccc2c1C(=O)C=C(C)C2=O` as the molecule, how does the pIC50 read?
Answer: 5.30

Question: With `CC(=O)Oc1cccc2c1C(=O)C=CC2=O` as the molecule, how does the pIC50 read?
Answer: 4.64

Question: With `CCCCCCCCCCCCCC(=O)Oc1cccc2c1C(=O)C=C(C)C2=O` as the molecule, how does the pIC50 read?
Answer: 5.05

Question: With `CCCCCCCCCCCCCCCCCC(=O)Oc1cccc2c1C(=O)C=C(C)C2=O` as the molecule, how does the pIC50 read?
Answer: < 4.00

Question: With `CCCCCCCCCCCC(=O)Oc1cccc2c1C(=O)C=CC2=O` as the molecule, how does the pIC50 read?
Answer: 4.54

Question: With `COc1cccc2c1C(=O)C=C(C)C2=O` as the molecule, how does the pIC50 read?
Answer: 5.52

Question: With `CCCCCCCC/C=C\CCCCCCCC(=O)Oc1cccc2c1C(=O)C=CC2=O` as the molecule, how does the pIC50 read?
Answer: 4.11

Question: With `CC(C)=CCOc1cccc2c1C(=O)C=CC2=O` as the molecule, how does the pIC50 read?
Answer: 5.15

Tested on: SK-MEL-28
Experiment: Growth inhibition of human SK-MEL-28 cells by MTT assay
Assay type: functional, cell-based
Conditions: not given

Question: With `CCCCCCCC/C=C\CCCCCCCC(=O)Oc1cccc2c1C(=O)C=C(C)C2=O` as the molecule, how does the pIC50 read?
Answer: 4.51

Question: With `CCOc1cccc2c1C(=O)C=C(C)C2=O` as the molecule, how does the pIC50 read?
Answer: 5.52

Question: With `CCCCCCCCCCCCCC(=O)Oc1cccc2c1C(=O)C=CC2=O` as the molecule, how does the pIC50 read?
Answer: 4.48

Question: With `CC(C)=CCOc1cccc2c1C(=O)C=C(C)C2=O` as the molecule, how does the pIC50 read?
Answer: 5.15

Question: With `CC(=O)Oc1cccc2c1C(=O)C=C(C)C2=O` as the molecule, how does the pIC50 read?
Answer: 5.52

Question: With `CC(=O)Oc1cccc2c1C(=O)C=CC2=O` as the molecule, how does the pIC50 read?
Answer: 4.64

Question: With `CCCCCCCCCCCCCC(=O)Oc1cccc2c1C(=O)C=C(C)C2=O` as the molecule, how does the pIC50 read?
Answer: 4.74

Question: With `CCCCCCCCCCCCCCCCCC(=O)Oc1cccc2c1C(=O)C=C(C)C2=O` as the molecule, how does the pIC50 read?
Answer: 4.04

Question: With `CCCCCCCCCCCC(=O)Oc1cccc2c1C(=O)C=CC2=O` as the molecule, how does the pIC50 read?
Answer: 4.82

Question: With `COc1cccc2c1C(=O)C=C(C)C2=O` as the molecule, how does the pIC50 read?
Answer: 5.30

Question: With `CCCCCCCC/C=C\CCCCCCCC(=O)Oc1cccc2c1C(=O)C=CC2=O` as the molecule, how does the pIC50 read?
Answer: 4.17

Question: With `CC(C)=CCOc1cccc2c1C(=O)C=CC2=O` as the molecule, how does the pIC50 read?
Answer: 5.30

Tested on: not listed separately
Experiment: Growth inhibition of human U373 cells by MTT assay
Assay type: functional, cell-based, U-373MG ATCC
Conditions: U373 MG

Question: With `CCCCCCCC/C=C\CCCCCCCC(=O)Oc1cccc2c1C(=O)C=C(C)C2=O` as the molecule, how does the pIC50 read?
Answer: 4.21

Question: With `CCOc1cccc2c1C(=O)C=C(C)C2=O` as the molecule, how does the pIC50 read?
Answer: 4.62

Question: With `CCCCCCCCCCCCCC(=O)Oc1cccc2c1C(=O)C=CC2=O` as the molecule, how does the pIC50 read?
Answer: 4.52

Question: With `CC(C)=CCOc1cccc2c1C(=O)C=C(C)C2=O` as the molecule, how does the pIC50 read?
Answer: 5.15

Question: With `CC(=O)Oc1cccc2c1C(=O)C=C(C)C2=O` as the molecule, how does the pIC50 read?
Answer: 5.30

Question: With `CC(=O)Oc1cccc2c1C(=O)C=CC2=O` as the molecule, how does the pIC50 read?
Answer: 5.10

Question: With `CCCCCCCCCCCCCC(=O)Oc1cccc2c1C(=O)C=C(C)C2=O` as the molecule, how does the pIC50 read?
Answer: 4.80

Question: With `CCCCCCCCCCCCCCCCCC(=O)Oc1cccc2c1C(=O)C=C(C)C2=O` as the molecule, how does the pIC50 read?
Answer: < 4.00

Question: With `CCCCCCCCCCCC(=O)Oc1cccc2c1C(=O)C=CC2=O` as the molecule, how does the pIC50 read?
Answer: 4.74

Question: With `COc1cccc2c1C(=O)C=C(C)C2=O` as the molecule, how does the pIC50 read?
Answer: 5.30

Question: With `CCCCCCCC/C=C\CCCCCCCC(=O)Oc1cccc2c1C(=O)C=CC2=O` as the molecule, how does the pIC50 read?
Answer: 4.04

Question: With `CC(C)=CCOc1cccc2c1C(=O)C=CC2=O` as the molecule, how does the pIC50 read?
Answer: 4.82

Tested on: not listed separately
Experiment: Chemical stability of the compound in MEM and RPMI assessed as compound recovery after 72 hrs in presence of foetal calf serum
Assay type: physicochemical
Conditions: cattle, MEM and RPMI cell culture media with foetal calf serum; read-out: Drug recovery

Question: With `CCCCCCCC/C=C\CCCCCCCC(=O)Oc1cccc2c1C(=O)C=C(C)C2=O` as the molecule, how does the remaining at 72 h read?
Answer: > 95%

Question: For `CCCCCCCCCCCCCC(=O)Oc1cccc2c1C(=O)C=CC2=O`, which remaining at 72 h is on record?
Answer: > 95%

Question: For `CC(=O)Oc1cccc2c1C(=O)C=C(C)C2=O`, which remaining at 72 h is on record?
Answer: > 95%

Question: With `CC(=O)Oc1cccc2c1C(=O)C=CC2=O` as the molecule, how does the remaining at 72 h read?
Answer: > 95%

Question: With `CCCCCCCCCCCCCC(=O)Oc1cccc2c1C(=O)C=C(C)C2=O` as the molecule, how does the remaining at 72 h read?
Answer: > 95%

Question: For `CCCCCCCCCCCCCCCCCC(=O)Oc1cccc2c1C(=O)C=C(C)C2=O`, which remaining at 72 h is on record?
Answer: > 95%

Question: Which remaining at 72 h does the source give for `CCCCCCCCCCCC(=O)Oc1cccc2c1C(=O)C=CC2=O` here?
Answer: > 95%

Question: For `CCCCCCCC/C=C\CCCCCCCC(=O)Oc1cccc2c1C(=O)C=CC2=O`, which remaining at 72 h is on record?
Answer: > 95%

Tested on: not listed separately
Experiment: Growth inhibition of mouse B16F10 cells by MTT assay
Assay type: functional, cell-based
Conditions: B16-F10

Question: With `CCCCCCCC/C=C\CCCCCCCC(=O)Oc1cccc2c1C(=O)C=C(C)C2=O` as the molecule, how does the pIC50 read?
Answer: 4.66

Question: With `CCOc1cccc2c1C(=O)C=C(C)C2=O` as the molecule, how does the pIC50 read?
Answer: 5.52

Question: With `CCCCCCCCCCCCCC(=O)Oc1cccc2c1C(=O)C=CC2=O` as the molecule, how does the pIC50 read?
Answer: 4.57

Question: With `CC(C)=CCOc1cccc2c1C(=O)C=C(C)C2=O` as the molecule, how does the pIC50 read?
Answer: 6.00

Question: With `CC(=O)Oc1cccc2c1C(=O)C=C(C)C2=O` as the molecule, how does the pIC50 read?
Answer: 6.40

Question: With `CC(=O)Oc1cccc2c1C(=O)C=CC2=O` as the molecule, how does the pIC50 read?
Answer: 5.15

Question: With `CCCCCCCCCCCCCC(=O)Oc1cccc2c1C(=O)C=C(C)C2=O` as the molecule, how does the pIC50 read?
Answer: 5.52

Question: With `CCCCCCCCCCCCCCCCCC(=O)Oc1cccc2c1C(=O)C=C(C)C2=O` as the molecule, how does the pIC50 read?
Answer: 4.34

Question: With `CCCCCCCCCCCC(=O)Oc1cccc2c1C(=O)C=CC2=O` as the molecule, how does the pIC50 read?
Answer: 5.10

Question: With `COc1cccc2c1C(=O)C=C(C)C2=O` as the molecule, how does the pIC50 read?
Answer: 5.70

Question: With `CCCCCCCC/C=C\CCCCCCCC(=O)Oc1cccc2c1C(=O)C=CC2=O` as the molecule, how does the pIC50 read?
Answer: 4.21

Question: With `CC(C)=CCOc1cccc2c1C(=O)C=CC2=O` as the molecule, how does the pIC50 read?
Answer: 5.15

Tested on: U-373MG ATCC
Experiment: Cytotoxicity against human U373 cells at 8 uM after 72 hrs by video microscopic analysis
Assay type: functional, cell-based
Conditions: not given

Question: Which Activity does the source give for `CC(=O)Oc1cccc2c1C(=O)C=CC2=O` here?
Answer: Active

Tested on: U-373MG ATCC
Experiment: Cytotoxicity against human U373 cells at 5 uM after 72 hrs by video microscopic analysis
Assay type: functional, cell-based
Conditions: not given

Question: With `COc1cccc2c1C(=O)C=C(C)C2=O` as the molecule, how does the Activity read?
Answer: Active

Tested on: MCF7
Experiment: Growth inhibition of human MCF7 cells by MTT assay
Assay type: functional, cell-based
Conditions: not given

Question: With `CCCCCCCC/C=C\CCCCCCCC(=O)Oc1cccc2c1C(=O)C=C(C)C2=O` as the molecule, how does the pIC50 read?
Answer: 4.24

Question: With `CCOc1cccc2c1C(=O)C=C(C)C2=O` as the molecule, how does the pIC50 read?
Answer: 5.22

Question: With `CCCCCCCCCCCCCC(=O)Oc1cccc2c1C(=O)C=CC2=O` as the molecule, how does the pIC50 read?
Answer: 4.52

Question: With `CC(C)=CCOc1cccc2c1C(=O)C=C(C)C2=O` as the molecule, how does the pIC50 read?
Answer: 5.52

Question: With `CC(=O)Oc1cccc2c1C(=O)C=C(C)C2=O` as the molecule, how does the pIC50 read?
Answer: 5.40

Question: With `CC(=O)Oc1cccc2c1C(=O)C=CC2=O` as the molecule, how does the pIC50 read?
Answer: 5.10

Question: With `CCCCCCCCCCCCCC(=O)Oc1cccc2c1C(=O)C=C(C)C2=O` as the molecule, how does the pIC50 read?
Answer: 4.66

Question: With `CCCCCCCCCCCCCCCCCC(=O)Oc1cccc2c1C(=O)C=C(C)C2=O` as the molecule, how does the pIC50 read?
Answer: < 4.00

Question: With `CCCCCCCCCCCC(=O)Oc1cccc2c1C(=O)C=CC2=O` as the molecule, how does the pIC50 read?
Answer: 4.62

Question: With `COc1cccc2c1C(=O)C=C(C)C2=O` as the molecule, how does the pIC50 read?
Answer: 5.30

Question: With `CCCCCCCC/C=C\CCCCCCCC(=O)Oc1cccc2c1C(=O)C=CC2=O` as the molecule, how does the pIC50 read?
Answer: 4.21

Question: With `CC(C)=CCOc1cccc2c1C(=O)C=CC2=O` as the molecule, how does the pIC50 read?
Answer: 4.80

Tested on: A549
Experiment: Growth inhibition of human A549 cells by MTT assay
Assay type: functional, cell-based
Conditions: not given

Question: With `CCCCCCCC/C=C\CCCCCCCC(=O)Oc1cccc2c1C(=O)C=C(C)C2=O` as the molecule, how does the pIC50 read?
Answer: 4.44

Question: With `CCOc1cccc2c1C(=O)C=C(C)C2=O` as the molecule, how does the pIC50 read?
Answer: 5.52

Question: With `CCCCCCCCCCCCCC(=O)Oc1cccc2c1C(=O)C=CC2=O` as the molecule, how does the pIC50 read?
Answer: 4.44

Question: With `CC(C)=CCOc1cccc2c1C(=O)C=C(C)C2=O` as the molecule, how does the pIC50 read?
Answer: 5.40

Question: With `CC(=O)Oc1cccc2c1C(=O)C=C(C)C2=O` as the molecule, how does the pIC50 read?
Answer: 5.30

Question: With `CC(=O)Oc1cccc2c1C(=O)C=CC2=O` as the molecule, how does the pIC50 read?
Answer: 4.64

Question: With `CCCCCCCCCCCCCC(=O)Oc1cccc2c1C(=O)C=C(C)C2=O` as the molecule, how does the pIC50 read?
Answer: 4.92

Question: With `CCCCCCCCCCCCCCCCCC(=O)Oc1cccc2c1C(=O)C=C(C)C2=O` as the molecule, how does the pIC50 read?
Answer: < 4.00

Question: With `CCCCCCCCCCCC(=O)Oc1cccc2c1C(=O)C=CC2=O` as the molecule, how does the pIC50 read?
Answer: 4.54

Question: With `COc1cccc2c1C(=O)C=C(C)C2=O` as the molecule, how does the pIC50 read?
Answer: 5.40

Question: With `CCCCCCCC/C=C\CCCCCCCC(=O)Oc1cccc2c1C(=O)C=CC2=O` as the molecule, how does the pIC50 read?
Answer: 4.11

Question: With `CC(C)=CCOc1cccc2c1C(=O)C=CC2=O` as the molecule, how does the pIC50 read?
Answer: 5.22
